Data reported in a melting point compilation (Tetko et al.; mined from patent text by program, amines drawn as free bases though some values may be those of a salt).

Row | Compound | melting point [°C]
1 | COc1ccc2cc(CCl)c(CCl)cc2c1Cl | 103
2 | CC(=O)Nc1cc(C(F)(F)F)ccc1N1CCOCC1 | 85
3 | COc1ccc(Nc2ccnc(Nc3cc(OC)c(OC)c(OC)c3)n2)cc1OC | 86
4 | CC1CCC(C(C)C)C(OC(=O)CCC(=O)OC2CC(C)CCC2C(C)C)C1 (single isomer, unassigned; (-)) | 61 to 62
5 | CCC1c2ccccc2-c2cc(-c3cccc(O)c3)ccc2N1S(=O)(=O)c1ccc(O)cc1 (centres undefined) | 105
6 | CCc1ccc(NC(=O)NCc2ccc3c(c2)CN(C2CCC(=O)NC2=O)C3=O)cc1 (centres undefined) | 263 to 265
7 | Cc1[nH]c(-c2ccccc2)nc1C(C)O (centres undefined) | 189 to 190
8 | CNc1ccc2c(c1)N1CCCN=C1S2 | 184
9 | OC(CN1CCC(c2ccc(F)cc2)CC1)CN1CCC(c2ccc(F)cc2)CC1 | 79 to 80
10 | COC(=O)c1ccc(CC(C)NCC(O)c2ccc(O)c(CO)c2)cc1 (centres undefined) | 118 to 120
11 | CC(NC1=C(N=Nc2ccccc2)C(=O)SC1)c1ccccc1 (centres undefined) | 129 to 130
12 | CC(=O)Nc1nc2ccc(O)cc2n1S(=O)(=O)N(C)C | 175 to 176
13 | O=C(Nc1c(C(O)(C(F)(F)F)C(F)(F)F)ccc2ccccc12)c1ccccc1 | 190 to 192
14 | CCOC(=O)CS(=O)CCNC(=O)OCC (centres undefined) | 73.8 to 77
15 | CCC(=O)N(CC)c1cccc(-c2ccc3nnc(N)n3n2)c1 | 199 to 200
16 | Oc1c(Cl)nc(-c2ccccc2)nc1Cl | 138 to 140
17 | CC(=O)OCCc1ccc(NC(=O)OCc2ccccc2)cc1 | 148 to 149
18 | COc1ccc(N2CCN(c3c(C)c(C)c4c(c3C)C(c3cccc(C)c3)C(C)(C)O4)CC2)cc1 (centres undefined) | 159 to 161
19 | COc1ccc(C=C2SC(=S)N(CC(=O)O)C2=O)cc1 | 250 to 253
20 | COC(=O)c1ccc(C=CC(=O)N2CCc3c([nH]c4ccccc34)C2c2ccc3c(c2)OCCO3)cc1 (centres undefined) | 136
21 | Cc1cc2c(c3c1C(c1ccc(C(C)C)cc1)CO3)CCC2 (centres undefined) | 77 to 78
22 | c1cc(OC[C@H]2CO2)c2cccnc2c1 | 79 to 81
23 | CC(=O)Oc1ccc(NC(C)=C2C(=O)OC(=O)C(C(C)=O)=C2O)cc1 | 199 to 201
24 | NC(=O)NCc1cc(Cl)cc(-c2csc(N=C(N)N)n2)n1 | > 300
25 | Clc1cc(Cl)c(Oc2c(Cl)ncnc2Cl)c(Cl)c1 | 104 to 105
26 | CC(CCNCCOc1cccc2[nH]ccc12)c1c[nH]c2ccccc12 (centres undefined) | 70 to 73
27 | COc1ccc(CC(C)(C)C(=O)O)cc1C(=O)NCc1ccc(C(F)(F)F)cc1 | 151 to 152

The remaining lines, values ahead:

Row | melting point [°C] | Compound
28 | 264 to 271 | CC(C)(O)Cn1c(CO)nc2c(N)nc3ccccc3c21
29 | 94 to 95 | CCCOc1ccc(-c2scc(-c3ccccc3)c2CC(=O)NC(=N)N)cc1
30 | 128 to 129 | N#Cc1ccc(OCCCOc2cccc(-c3cc4ccc(C#N)cc4o3)c2)cc1
31 | 148 to 149 | N#Cc1cccc(-c2nc(-c3ccccn3)no2)c1
32 | 148 to 150 | COCN(COC)c1ccn2nc(-c3ccccc3)c(-c3ccc(=O)n(C(C)C)n3)c2c1
33 | 154 to 155 | CN/C(=C1/Sc2ccccc2C1=O)c1ccccc1
34 | 238 to 240 | CCOC(=O)c1cccc(Nc2ncc3cc(-c4c(Cl)cccc4Cl)c(=O)n(C)c3n2)c1
35 | 138 to 141 | O=C(c1ccc(Cl)c(Cl)c1)N(CCCCn1ccnc1)C1=Nc2cccc3cccc1c23
36 | 61 to 64 | CCCc1cc(OCc2ccc(-c3ccccc3-c3nnn(C(c4ccccc4)(c4ccccc4)c4ccccc4)n3)cc2)c(C(=O)OC)c(C)n1
37 | 224 | O=C1CN(C(=O)Cc2ccccc2Cl)N(Cc2ccc(Cl)cc2)C(=O)N1
38 | 164 to 168 | CCCCc1nc(Cl)c(CO)n1Cc1ccc2oc(-c3ccccc3C#N)c(OC)c2c1
39 | 158 to 159 | COCn1ncc2cc(-c3nnc(SCc4ccc(OC)c(C(F)(F)F)c4)o3)ccc21
